The source of these data is patent publication US20260256763A1, “Aromatic Amide Derivative, And Preparation Method Therefor And Use Thereof” (Zhejiang Hisun Pharmaceutical Co., Ltd., priority 2023, published 2026).

One experiment has as its system OVCAR-3 cells. The experiment is described as follows: Inhibition on OVCAR-3 cell proliferation (CellTiter-Glo). The class given is cell-based. The settings on record: Homo sapiens, OVCAR-3 cells (TP53 R248Q mutation), 72 hours. Here is the method: Influences of the compounds of the present invention on OVCAR-3 cell proliferation were determined by the following method. OVCAR-3 cells (containing TP53 R248Q mutation) were purchased from the Cell Bank of Shanghai Institute of Biochemistry and Cell Biology, Chinese Academy of Sciences, and cultured in an RPMI 1640 culture medium containing […], 100 U penicillin and 100 μg/mL streptomycin. A cell viability was determined by a CellTiter-Glo® Luminescent Cell Viability Assay kit (Promega, article number G7573).
(§1) An experimental method was operated according to steps in the instruction of the kit, which was briefly described as follows: a test compound was dissolved in DMSO first to prepare a 10 mM stock solution, then the stock solution was diluted with the above RPMI 1640 culture medium to prepare a test sample, and a final concentration of the compound was in a range of 1000 nM-0.015 nM. Cells in a logarithmic growth phase were inoculated into a 96-well cell culture plate at a density of 1000 cells per well, cultured in a 5% CO2 incubator at 37° C. overnight, and then the test compound was added to continuously culture for 72 hours. After the culture was ended, 50 μL of CellTiter-Glo detection solution was added to each well, the plates were shaken for 5 minutes, and then allowed to stand for 10 minutes, and subsequently, a luminous value of each well of sample was read by a microplate reader in a Luminescence mode. By comparing with a numerical value of a control group (0.3% DMSO), a percentage inhibition rate of the compound at each concentration was calculated, and then nonlinear regression analysis was carried out based on concentration logarithm-inhibition rate of the compound in GraphPad Prism 5 software, so as to obtain an IC50 value of the compound in inhibition on cell proliferation, which are shown in Table 1.
On the technique in general: In ATP-based viability assays light output follows the ATP content of the culture.

For a further experiment, the system named is HT-29 cells. As to the kind of experiment: Inhibition on HT-29 cell proliferation (CellTiter-Glo). It is filed as cell-based. The settings on record: Homo sapiens, HT-29 cells (TP53 R273H mutation), 120 hours. Here is the method:
Influences of the compounds of the present invention on HT-29 cell proliferation were determined by the following method. HT-29 cells (containing TP53 R273H mutation) were purchased from the Cell Bank of Shanghai Institute of Biochemistry and Cell Biology, Chinese Academy of Sciences, and cultured in a McCOY's 5A culture medium containing 10% fetal bovine serum, 100 U penicillin and 100 μg/mL streptomycin. A cell viability was determined by a CellTiter-Glo® Luminescent Cell Viability Assay kit (Promega, article number G7573).
as §1, with “McCOY's 5A” for “RPMI 1640”, “120” for “72”, “µL” for “μL”, “2.” for “1.”

The target of another experiment is T1, recombinant human KIF18A (Homo sapiens, UniProt Q8NI77).
T1 construct: purchased GenScript
As to the kind of experiment: Inhibition on KIF18A enzyme activity (ADP-Glo). It is filed as biochemical. The settings on record: recombinant human KIF18A 100 nM, ATP 60 μM. Here is the method:
Inhibition degrees of the compounds of the present invention on recombinant human KIF18A enzyme activity in vitro were determined by the following method. An ADP-Glo™ Kinase Assay kit (article number V9102) from Promega Company was used in this method. Detailed experimental operation can be referred to the instruction of the kit.
The reaction was carried out in a 384-well microplate. The test compound and the recombinant human KIF18A protein (final concentration of 100 nM, entrusted to GenScript for expression) were added into the wells and incubated at room temperature for 20 minutes, and subsequently, ATP solution (component V915A from the ADP-Glo™ Kinase Assay kit, final concentration of 60 μM) was added to the reaction solution and the obtained system was incubated at room temperature for 20 minutes. Subsequently, 5 μL of ADP-Glo Reagent was added to the reaction system and the obtained system was incubated at room temperature for 50 minutes. Then, 10 μL of Kinase Detection Reagent was added to the reaction system, and the obtained system was incubated at room temperature for 30 minutes. After the incubation was ended, a chemiluminiscence intensity value of each well was determined by a microplate reader in a Luminescence mode.
(In general: In ADP-Glo the light output rises with the ADP produced.)

For experiment [1], the system named is OVCAR-3 human ovarian adenocarcinoma tumor fragment xenograft. The experiment is described as follows: Pharmacodynamic testing in OVCAR-3 tumor fragment xenograft model. It is filed as in vivo, BALB/c nude mice. As to conditions: 16 days after administration; for Tumor volume (x ± S): mean ± standard error, in mm³. Here is the method: An anti-tumor effect of Compound 1 of the present invention in a BALB/c nude mouse animal model with subcutaneous OVCAR-3 human ovarian adenocarcinoma tumor fragment xenograft was evaluated.
BALB/c nude mice, female, 6-7 weeks old, purchased from Jiangsu Gempharmatech Biotechnology Co., Ltd.
Mice in a solvent control group were given DMA:CrEL:5% GS=10:10:80 (v:v:v).
AMG650: a proper amount of AMG-650 was weighed, proper amounts of DMA, CrEL and 5% GS were added in sequence, and the obtained system was evenly mixed by ultrasonic vortex to prepare 0.8 mg/mL and 0.4 mg/mL preparations respectively, wherein DMA, CrEL and 5% GS=10:10:80 (v:v:v).
Compound 1: a proper amount of Compound 1 was weighed, proper amounts of DMA, CrEL and 5% GS were added in sequence, and the obtained system was evenly mixed by ultrasonic vortex to prepare 0.8 mg/mL and 0.4 mg/mL preparations respectively, wherein DMA, CrEL and 5% GS=10:10:80 (v:v:v).
An appropriate OVCAR-3 tumor-bearing animal was selected, a 1 mm×1 mm×1 mm OVCAR-3 tumor fragment was acquired aseptically and placed into normal saline for later use, which was used for subcutaneous tumor inoculation in a right side of back of the BALB/c nude mice.
About 1 mm×1 mm×1 mm OVCAR-3 tumor fragment was subcutaneously inoculated in the right side of back of the female BALB/c nude mice. When an average tumor volume reached about 100-250 mm^3, the mice were randomly grouped according to the tumor size, with 6 mice in each group.
Animals in each group were given the test compound once per day according to an animal weight at a fixed time every day by oral administration (po), the animals started to be administered with the test compound for the first time on the day of grouping for 22 consecutive days, and the animal weight was recorded every day. • The 1st group (G1) was a solvent control group; • The 2nd group (G2) and the 3rd group (G3) were orally administered with AMG-650 at administration dosages of 8 mg/kg and 4 mg/kg respectively once per day (QD); and • The 4th group (G4) and the 5th group (G5) were orally administered with Compound 1 at administration dosages of 8 mg/kg and 4 mg/kg respectively once per day (QD).
Tumor formation at an inoculation site of the animals in each group was observed, and a tumor volume was measured twice per week, and calculated according to the following formula: • a tumor volume (TV), a relative tumor volume (RTV), a relative tumor proliferation rate (T/C) and a relative tumor inhibition rate (TGI) were calculated according to the following formulas:
TV (tumor volume)=½×a×b^2, wherein a and b respectively represented a tumor length and a tumor width; (1)
RTV (relative tumor volume)=Vt/V0, wherein V0 was a tumor volume measured at the time of grouping, and Vt was a tumor volume in each measurement; (2)
T/C (%)=TRTV/CRTV×100%, wherein TRTV was RTV of a treatment group, and CRTV was RTV of a solvent control group; and (3)
TGI %=(1−T/C)×100%, wherein T and C were relative tumor volumes of the treatment group and the solvent control group at a specific time point respectively. (4)

As a reminder, the IC50 is the concentration that gives 50% inhibition. For orientation: TGI means the reduction of tumour growth relative to the control group.

Each structure is given as a SMILES string.

T1 sequence (Q8NI77 whole entry): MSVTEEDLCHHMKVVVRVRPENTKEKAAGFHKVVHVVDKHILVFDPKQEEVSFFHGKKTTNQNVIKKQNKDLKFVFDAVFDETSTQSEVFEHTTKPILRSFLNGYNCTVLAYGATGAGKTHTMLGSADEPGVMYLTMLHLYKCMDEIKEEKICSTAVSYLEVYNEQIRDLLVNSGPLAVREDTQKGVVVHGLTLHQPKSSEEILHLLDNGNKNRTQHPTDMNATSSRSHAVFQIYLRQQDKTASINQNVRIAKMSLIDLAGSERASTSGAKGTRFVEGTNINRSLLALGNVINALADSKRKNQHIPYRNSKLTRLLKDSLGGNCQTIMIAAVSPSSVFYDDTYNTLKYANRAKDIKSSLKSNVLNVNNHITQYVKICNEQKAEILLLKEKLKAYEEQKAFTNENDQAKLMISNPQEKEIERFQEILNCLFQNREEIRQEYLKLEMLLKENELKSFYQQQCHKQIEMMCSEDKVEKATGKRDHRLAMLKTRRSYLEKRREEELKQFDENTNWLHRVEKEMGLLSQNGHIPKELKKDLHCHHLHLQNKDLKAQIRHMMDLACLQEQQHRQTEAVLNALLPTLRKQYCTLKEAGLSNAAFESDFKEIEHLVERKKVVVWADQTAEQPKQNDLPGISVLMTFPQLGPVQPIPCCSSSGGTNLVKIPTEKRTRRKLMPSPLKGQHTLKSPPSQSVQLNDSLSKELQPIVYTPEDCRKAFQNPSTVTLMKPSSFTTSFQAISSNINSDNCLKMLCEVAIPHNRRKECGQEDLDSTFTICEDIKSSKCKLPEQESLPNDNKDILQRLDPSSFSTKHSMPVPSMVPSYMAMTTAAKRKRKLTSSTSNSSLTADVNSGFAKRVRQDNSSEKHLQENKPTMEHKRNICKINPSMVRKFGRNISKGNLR
T1 sequence (P68363 whole entry partner): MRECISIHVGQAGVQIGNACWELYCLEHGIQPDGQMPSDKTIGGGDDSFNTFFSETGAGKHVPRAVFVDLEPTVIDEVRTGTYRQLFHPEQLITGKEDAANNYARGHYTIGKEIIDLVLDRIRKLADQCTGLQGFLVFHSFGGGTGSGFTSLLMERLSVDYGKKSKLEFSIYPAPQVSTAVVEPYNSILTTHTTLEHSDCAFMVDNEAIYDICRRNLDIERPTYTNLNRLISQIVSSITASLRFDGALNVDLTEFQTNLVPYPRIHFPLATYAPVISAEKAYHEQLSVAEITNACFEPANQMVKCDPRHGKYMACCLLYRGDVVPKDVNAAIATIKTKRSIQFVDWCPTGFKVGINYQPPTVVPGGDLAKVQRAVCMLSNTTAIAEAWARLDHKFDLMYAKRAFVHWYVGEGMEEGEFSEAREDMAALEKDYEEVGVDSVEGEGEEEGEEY
T1 sequence (Q9BVA1 whole entry partner): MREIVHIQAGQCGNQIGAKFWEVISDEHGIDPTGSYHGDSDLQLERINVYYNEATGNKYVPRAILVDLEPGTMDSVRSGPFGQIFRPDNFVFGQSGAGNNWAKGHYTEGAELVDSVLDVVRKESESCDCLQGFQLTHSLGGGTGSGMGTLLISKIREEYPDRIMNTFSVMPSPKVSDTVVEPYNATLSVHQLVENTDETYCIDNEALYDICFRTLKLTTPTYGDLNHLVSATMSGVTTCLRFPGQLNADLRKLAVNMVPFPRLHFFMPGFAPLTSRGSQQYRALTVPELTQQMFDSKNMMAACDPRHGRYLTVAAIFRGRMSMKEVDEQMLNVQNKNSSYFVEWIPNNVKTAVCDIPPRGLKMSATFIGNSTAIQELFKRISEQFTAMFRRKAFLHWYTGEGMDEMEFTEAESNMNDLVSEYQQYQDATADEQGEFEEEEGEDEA

With `CCS(=O)(=O)Nc1ccc(C(=O)Nc2cc3c(c(N4CCC(F)(F)CC4)c2)OCCO3)c(N2CCC3(CC2)CC3)c1` [Example 14, N-(8-(4,4-difluoropiperidin-1-yl)-2,3-dihydrobenzo[b][1,4]dioxin-6-yl)-4-(ethylsulfonamido)-2-(6-azaspiro[2.5]octan-6-yl)benzamide], the concentration for half-maximal inhibition (IC50) in the experiment on OVCAR-3 cells is 8.4 nM; in the experiment with HT-29 cells, 9.2 nM; at recombinant human KIF18A it was 184 nM.

Take `CCS(=O)(=O)Nc1ccc(C(=O)Nc2cc(N3CC(F)(F)C3)c3nn(C)cc3c2)c(N2CCC3(CC2)CC3)c1` [Example 24, N-(7-(3,3-difluoroazetidin-1-yl)-2-methyl-2H-indazol-5-yl)-4-(ethylsulfonamido)-2-(6-azaspiro[2.5]octan-6-yl)benzamide]: the IC50 in the experiment with OVCAR-3 cells worked out at 13.4 nM; in the experiment on HT-29 cells it was 4.1 nM; on recombinant human KIF18A, 85.7 nM.

As to `CCS(=O)(=O)Nc1ccc(C(=O)Nc2cc(N3CCC(F)(F)CC3)c3cnn(C)c3c2)c(N2CCC3(CC2)CC3)c1` [Example 16, N-(4-(4,4-difluoropiperidin-1-yl)-1-methyl-1H-indazol-6-yl)-4-(ethylsulfonamido)-2-(6-azaspiro[2.5]octan-6-yl)benzamide], the IC50 with OVCAR-3 cells is 36.7 nM; in the experiment on HT-29 cells it was 35.7 nM; at recombinant human KIF18A it was 209 nM.

Consider `CCS(=O)(=O)Nc1ccc(C(=O)Nc2cc(N3CCC(F)(F)CC3)c3[nH]ncc3c2)c(N2CCC3(CC2)CC3)c1` [Example 21, N-(7-(4,4-difluoropiperidin-1-yl)-1H-indazol-5-yl)-4-(ethylsulfonamido)-2-(6-azaspiro[2.5]octan-6-yl)benzamide], for which the IC50 with OVCAR-3 cells is 16.6 nM; with HT-29 cells, 13.8 nM; on recombinant human KIF18A, 229 nM.

`Cc1cc(NC(=O)c2ccc(NS(=O)(=O)CCO)cc2N2CCC3(CC2)CC3)nc(N2CCC(F)(F)CC2)n1` [AMG 650, reference compound]: in experiment [1] (4 mg/kg po QD), the tumour growth inhibition (TGI) was 15.3% and the “Tumor volume (x ± S)” value came out at 511 ± 49. In experiment [1] (8 mg/kg po QD), the tumour growth inhibition (TGI) worked out at 60.5% and the “Tumor volume (x ± S)” value is 243 ± 35.

As to `CN1Cc2cc(NC(=O)c3ccc(NS(=O)(=O)CCO)cc3N3CCC4(CC3)CC4)cc(N3CCC(F)(F)CC3)c2C1=O` [Example 28, N-(7-(4,4-difluoropiperidin-1-yl)-2-methyl-1-oxoisoindolin-5-yl)-4-((2-hydroxyethyl)sulfamine)-2-(6-azaspiro[2.5]octan-6-yl)benzamide], the results for the IC50 in the experiment with OVCAR-3 cells, in the experiment on HT-29 cells and on recombinant human KIF18A were 6.8 nM, 18.9 nM and 142 nM, respectively.

With `CCS(=O)(=O)Nc1ccc(C(=O)Nc2cc3c(c(N4CC(F)(F)C4)c2)OCC3)c(N2CCC3(CC2)CC3)c1` [Example 6, N-(7-(3,3-difluoroazetidine-1-yl)-2,3-dihydrobenzofuran-5-yl)-4-(ethylsulfonamido)-2-(6-azaspiro[2.5]octan-6-yl)benzamide], the figures for the IC50 with OVCAR-3 cells, in the experiment on HT-29 cells and on recombinant human KIF18A were 9.1 nM, 10.7 nM and 60.9 nM, respectively.
